Reference: patent US20250066320A1, “Active Ingredients with Sialagogue and Tingling/Fizzy Effect, and Preparations Containing Same” (Symrise AG, priority 2021, published 2025)

Experiment: Sensory tasting of the active ingredients (mouth-watering and/or tingling effect) by a trained expert panel
Assay type: in vivo, human
Conditions: for Sensory Rating (profile in words): 3 to 7 tasters; for Sensory Rating: intensity of mouth-watering and/or tingling/fizzing effect (figure in brackets): 50 ppm, scale of 1 (very weak) to 10 (very strong)
Procedure: The sensory tasting of the active ingredients according to the invention was carried out as follows: • (1) The active ingredients were each prepared in a 5% sugar solution or in an unflavored standard fondant mass. Fondant is the name for a soft, pasty sugar mass that is used to make various confectionery products. Fondant is made from water and sucrose as well as glucose syrup, invert sugar cream and/or sugar alcohols (e.g., sorbitol or mannitol). The mixture is boiled and then processed into a soft paste by kneading it vigorously and cooling it quickly. • (2) The concentration of the active ingredients was 25 or 50 ppm. • (3) The test samples were tested under practical conditions by a panel of experts with sensory training. For tasting, 3 to 7 tasters each rinsed their mouths with approx. 5 ml of the sugar solution and spat the solution out again. The mouth-watering and/or tingling effect was assessed on a scale of 1 (very weak) to 10 (very strong) and the profile evaluated.

[1] = 25 ppm in 5% sugar solution or unflavored fondant mass
[2] = 50 ppm in 5% sugar solution or unflavored fondant mass

## CCOc1ccc(C(=O)N2CCN(CCc3ccccc3)CC2)cc1 [Compound 43, (4-ethoxyphenyl)-[4-(2-phenylethyl)piperazin-1-yl]methanone]
[1]
  Sensory Rating (profile in words): metallic, slightly numbing, tingling/fizzing and mouth- watering effect
[2]
  Sensory Rating (profile in words): strongly bitter, metallic, tingling/fizzing (7) , and mouth-watering effect
  Sensory Rating: intensity of mouth-watering and/or tingling/fizzing effect (figure in brackets): 7

## CCOc1ccc(C(=O)N2CCN(CCC3CCCCC3)CC2)cc1 [Compound 44, [4-(2-cyclo-hexylethyl)piperazin-1-yl]-(4-ethoxy-phenyl)methanone]
[2]
  Sensory Rating (profile in words): slightly tingling/fizzing (4), and mouth-watering
  Sensory Rating: intensity of mouth-watering and/or tingling/fizzing effect (figure in brackets): slightly tingling/fizzing (4), and mouth-watering

## CCOc1ccc(C(=O)N2CCC(CCCc3ccccc3)CC2)cc1 [Compound 45, (4-ethoxyphenyl)-[4-(3-phenyl-propyl)-1-piperidyl]-methanone]
[2]
  Sensory Rating (profile in words): slightly tin- gling/ fizzing (2)
  Sensory Rating: intensity of mouth-watering and/or tingling/fizzing effect (figure in brackets): slightly tin- gling/ fizzing (2)

## CCOc1ccc(C(=O)N2CCN(CCCc3ccccc3)CC2)cc1 [Compound 46, (4-ethoxyphenyl)-[4-(3-phenyl-propyl)piperazin-1-yl]methanone]
[1]
  Sensory Rating (profile in words): metallic, slightly numbing, tingling and mouth- watering effect
[2]
  Sensory Rating (profile in words): strong, bitter, metallic and tingling/fizzing (7), and mouth-watering effect
  Sensory Rating: intensity of mouth-watering and/or tingling/fizzing effect (figure in brackets): 7

## CCOc1ccc(C(=O)N2CCCN(CCc3ccccc3)CC2)cc1 [Compound 47, (4-ethoxyphenyl)-[4-(2-phenylethyl)-1,4-diazepan-1-yl]methanone]
[2]
  Sensory Rating (profile in words): Strong mouth-watering and tingling/fizzing effect (6), Pleasant taste
  Sensory Rating: intensity of mouth-watering and/or tingling/fizzing effect (figure in brackets): Strong mouth-watering and tingling/fizzing effect (6), Pleasant taste

## CCOc1ccc(C(=O)N2CCN(Cc3ccccc3)CC2)cc1 [Compound 48, (4-benzylpiperazin-1-yl)-(4-ethoxy-phenyl)methanone]
[2]
  Sensory Rating (profile in words): slightly tingling/ fizzing (1-2)
  Sensory Rating: intensity of mouth-watering and/or tingling/fizzing effect (figure in brackets): slightly tingling/ fizzing (1-2)
